Results on one sequence are retold here after article PMC4326127, “Collagen Inhibitory Peptide R1R2 Mediates Vascular Remodeling by Decreasing Inflammation and Smooth Muscle Cell Activation” (PLoS ONE, 2015).

Entries after “also recorded” stand apart in the source; their conditions may differ.

One test concerns collagen type I. To be noted: in vitro; ref [29],[30],[33]; cited from earlier work. The text has this: (§1) In order to assess whether inhibiting collagen type I deposition reduces vascular remodeling in an in vivo mouse model, we used the collagen inhibitory peptide R1R2 for this study. The R1R2 peptide is derived from two repeat domains of the bacterial adhesin SFS, and is highly homologous to collagen. […] It is likely that R1R2 blocks collagen type I fibril formation around cells by binding to the collagen-binding domain of FN. To characterize the effects of our synth ...

The subject of another test is collagen-FN binding. The following applies: in vitro; ref [29],[30],[33]; cited from earlier work.
Description: as §1

For another test, the system named is smooth muscle cell. The following applies: in vitro; ref [29],[30],[33]; cited from earlier work.
Description: as §1

In test [1] the test system is binding of FN to collagen type I. Put plainly: Solid-phase binding assay (competitive ELISA) of FN to collagen. On the set-up: species or system human FN; rat collagen type I. To be noted: 4 nM FN incubated with peptide at 4°C overnight, then on wells coated with 10 μg/ml collagen I overnight at 37°C; anti-FN/HRP, ABTS, A405. Background: ELISA stands for enzyme-linked immunosorbent assay.
Description: Human FN and rat collagen type I for competitive ELISA were purchased from Sigma-Aldrich (St. Louis, MO).
The FN-peptide solutions were added to collagen or BSA-coated wells, and the plates were incubated overnight at 37°C. The wells were washed and a rabbit anti-FN antibody was added for 90 minutes at room temperature. Wells were washed and then incubated with a horseradish peroxidase-conjugated secondary antibody. After washing was completed, peroxidase activity was quantified using 2,2'-azino-bis-(3-ethylbenthiazoline-6-sulfonic acid). Measurements were done at 405 nm (A405) using a SpectraMax M5 microplate reader (Molecular Device, Sunnyvale, CA).
Bound FN was detected with an anti-FN antibody followed by HRP-conjugated secondary antibody, and ABTS as described in Methods. The absorbance at 405nm was quantitated.

For another test, the system named is FN fibril. The following applies: in vitro; ref [29]; cited from earlier work. The source says: Therefore, we used the experimental group treated with scrambled peptide as the control group. In Fig. 3A and 3B, IHC analysi ... || In vitro studies have shown that FN is required as a scaffold for collagen deposition. Inhibiting FN polymerization with antibodies or inhibitors prevents FN and collagen fibril deposition into the ECM in vitro [27, 31].

The subject of a further test is U937 cells / HUVECs. In words: Monocyte U937 transendothelial migration assay. Type of test: cell-based, human. To be noted: HUVECs on 5um transwells, 10 ng/ml TNF-α; U937 1.5x10^5 cells/transwell, 1.5 hours at 37°C; fluorescence 485/535; mean ± SD. The protocol: (§2) For in vivo experiments, the data are shown as the mean ± SEM. For in vitro experiments, the data shown are the means ± SD of a representative experiment, at least 3 independent experiments were performed. One-way ANOVA with post-hoc testing were used for data analysis with GraphPad Prism software (GraphPad, San Diego, CA). If normality test failed, nonparametric Kruskal-Wallis test followed by Dunn's post-hoc test were used. P > 0.05 was not considered significant.

The test system of the next test is FN. Put plainly: IHC for FN in ligated carotid artery. The following applies: for FN IHC intensity in intima-media area: mean ± SEM. It is filed as in vivo, FVB/NJ (FVB) mice. The protocol: (§3) Animals were anesthetized with isoflurane inhalation. The left common carotid artery was exposed, dissected free from the surrounding connective tissue and completely ligated with 6-0 silk suture just proximal to the carotid bifurcation. […] 4–10 mice were included in each experimental group.
(§4) Paraffin sections selected from the first mm of the carotid artery in each group were used for immunohistochemistry (IHC). […] Sections were then incubated with appropriate biotinylated secondary antibodies followed by avidin-biotin immunoperoxidase system (Vector Laboratories, Burlingame, CA). Liquid DAB Substrate Chromogen system (Dako, Carpinteria, CA) was used for detection.
(§5) Quantitative IHC analysis was performed on digital images captured with a 20x objective by using Image-Pro Plus software. Data from 3–6 mice for each group were averaged, and the average values ± SEM were shown. For FN, collagen type I, SM-MHC and SM α-actin, color digital images were transformed into gray scale, and the sum of the optical densities from the intima+media area in each section was determined. […] The percent of positive cells is reported as the proliferation index. […] The intima+media region was traced manually. The percent of positively stained area in intima+media to the total traced area was assessed.
as §2

The subject of test [2] is A7r5 SMCs. In words: A7r5 SMC growth study. It is filed as cell-based. On the procedure:
(§6) Human umbilical vein endothelial cells (HUVECs) and A7r5 SMCs were provided by Resource Center (SB3, NSC 100-2325-B-080-001), National Research Program for Biopharmaceuticals (Hsinchu, Taiwan). HUVECs were maintained in M199 (Life Technologies, Carlsbad, CA) with 25U/ml heparin (Sigma-Aldrich, St. Louis, MO), 10% fetal bovine serum (FBS) and endothelial cell growth supplement (ECGS; Millipore, Billerica, MA). A7r5 SMCs were grown in Dulbecco’s Modified Eagle’s Medium (DMEM) containing high glucose, supplemented with 10% fetal bovine serum. Human U937 cells were grown in RPMI1640 with 10% FBS.
A7r5 cells and HUVECs were growth-arrested and then stimulated with 10% FBS or 10 ng/ml TNF-αovernight after serum starvation as indicated in the figure legend. Briefly, trypan blue-excluding cells were counted with a hemocytometer, and data were analyzed using GraphPad Prism Software (San Diego, CA) as in previous studies. A second observer performed a similar analysis to verify the initial findings.
as §2
Fig 6 R1R2 reduces SMC proliferation and migration. (A) A7r5 SMC growth study over 96 hours. After serum starvation and treatment with R1R2 or scrambled peptides for 36 hours, cells were stimulated with 10% FBS over 96 hours. Cells were counted at the indicated time in the figure (n = 5). (B) A7r5 SMCs were pretreated with R1R2 or scramble peptide for 36 hours. […] (C) Quantitation of SMC migration in the scratch wound healing assay was performed by subtracting the cell-free area 30 hours after PDGF-BB stimulation from the cell-free area in the beginning (n = 5). * indicates p<0.05 and ** p< 0.01.

For test [3], the system named is A7r5 SMCs. Put plainly: SMC migration, scrape wound assay. It is filed as cell-based. On the procedure: as §6
A scrape wound assay was used to assess the effect of R1R2 and scrambled peptides on SMC migration as described. Briefly, A7r5 SMCs were grown until 90% confluent, followed by serum starvation and treatment with R1R2 and scrambled peptides for 36 hours. Several scrape wounds were then performed across the dish with a sterile yellow pipet tip. We initiated the experiment with treatment of cells with 10 ng/ml PDGF-BB. Photographs of the wound area were taken immediately after PDGF-BB addition (0 hour) and 30 hours postwounding with an Olympus CKX-41 microscope connected to a camera. At least three photographs were taken per group at each time point. Wound areas were determined using Image-Pro Software (Media Cybernetics, MD). Measurement of migration was determined by subtracting the cell-free area 30 hours after PDGF-BB addition from the cell-free area in the beginning of scrape wounds.
For in vivo experiments, the data are shown as the mean ± SEM. For in vitro experiments, the data shown are the means ± SD of a representative experiment, at least 3 independent experiments were performed. […]
Fig 6 R1R2 reduces SMC proliferation and migration. […] Cells were counted at the indicated time in the figure (n = 5). […] (C) Quantitation of SMC migration in the scratch wound healing assay was performed by subtracting the cell-free area 30 hours after PDGF-BB stimulation from the cell-free area in the beginning (n = 5). * indicates p<0.05 and ** p< 0.01.

Another test has as its system Ki-67 (+) cells. Put plainly: Ki-67 IHC, cell proliferation in carotid intima and media. It is filed as in vivo, FVB/NJ (FVB) mice. To be noted: 7 days post-surgery, mean ± SEM, n = 5 each. On the procedure:
as §3, §4, §5
For in vivo experiments, the data are shown as the mean ± SEM. […]

In a further test the test system is CD45 (+) leukocytes. Put plainly: CD45 IHC, leukocyte infiltration in carotid intima-media. It is filed as in vivo, FVB/NJ (FVB) mice. The protocol:
as §3, §4, §5, §2

In the case of “GLNGENQKEPEQGERGEAGPPLSGLSGNNQGRPSLPGLNGENQKEPEQGERGEAGPP [R1R2]”, the “effect on collagen type I deposition” value in the test with collagen type I is on record as “known to inhibit collagen-FN binding, collagen type I deposition”. Besides, the “effect on collagen-FN binding” value with collagen-FN binding is given as “known to inhibit collagen-FN binding”. The “effect on smooth muscle cell migration” value with smooth muscle cell is “known to inhibit collagen-FN binding, collagen type I deposition, and smooth muscle cell migration in vitro”. Further, the “effect on FN-collagen type I binding” value in test [1] is listed as “blocked the binding of FN to collagen type I in a dose-dependent manner”. In addition, the “effect on FN fibril deposition/formation” value with FN fibril is on record as “does not affect FN fibril deposition into the ECM; also recorded: does not alter FN fibril formation”. Also, the U937 transendothelial migration in the test with U937 cells / HUVECs worked out at 65633 ± 20412 cells per well. The “effect on FN intensity” value with FN (7 and 14 days after ligation, R1R2 vs scrambled peptide, in words) is on record as “no significant decrease of FN intensity”. For the same sequence, the “FN IHC intensity in intima-media area” value with FN (7 days after ligation, R1R2 n = 6, scrambled n = 6) is listed as 0.153 ± 0.012; in the test on FN (14 days after ligation, R1R2 n = 7, scrambled n = 7) it was 0.309 ± 0.005. Further, the “effect on A7r5 SMC growth” value with A7r5 SMCs [2] (48–96 hours, in comparison with scrambled peptide, in words) was “significantly inhibited A7r5 SMC growth after 48–96 hours”. For the same sequence, in the test with A7r5 SMCs [2] (48hr, 10% FBS after serum starvation and 36 hours peptide treatment, hemocytometer, trypan blue, mean ± SD, n = 5), the “A7r5 SMC growth, cell number” value is listed as 1.5 ± 0.224 x 10^5. Moreover, in the test with A7r5 SMCs [3] (30 hours post PDGF-stimulation, versus scrambled peptide, in words), the “effect on SMC migration (wound healing images)” value was “cells migrated more slowly”. Also, in the test on A7r5 SMCs [3] (A7r5 SMCs, 36 hours peptide pretreatment, 10 ng/ml PDGF-BB, 30 hours, mean ± SD, n = 3), the “SMC migration (cell-free area at 0 h minus cell-free area at 30 hours)” value was 130149 ± 53295. Moreover, the “proliferation index (Ki-67 (+) cells/total cells)” value in the test on Ki-67 (+) cells is on record as 11.20 ± 0.62%. For the same sequence, in the test with CD45 (+) leukocytes (7 days after ligation, percent of positively stained area, mean ± SEM, R1R2 n = 5, scrambled n = 6), the “CD45 (+) area in intima-media” value was determined as 0.094 ± 0.035%. Moreover, the “reduction of inflammatory cell infiltration into the vessel” value in the test on CD45 (+) leukocytes (carotid artery, periadventitial pluronic gel) is approximately 78%.
